Test results taken from patent US11690828B2, “Treatment of CNS diseases with sGC stimulators” (Cyclerion Therapeutics, Inc., priority 2016, dated 2023).

Tests used:
[1] = system: R6/2 mice hippocampal slices; test: Synaptic transmission and plasticity (LTP) in R6/2 mice hippocampal slices; type: cell-based, mouse
Protocol: Preparation of acute mice hippocampal slices. Experiments were carried out with 11 to 12 week-old R6/2 and WT mice provided by the Jackson Laboratory (USA). Hippocampal slices (350 μm thickness) were cut with a Macllwain tissue chopper in an ice-cold oxygenated sucrose solution (Saccharose 250, Glucose 11, NaHCO3 26, KCl 2, NaH2PO4 1.2, MgCl2 7, and CaCl2 0.5 in mM). The slices were incubated 1 hour at room temperature in ACSF of the following composition: Glucose 11, NaHCO3 25, NaCl 126, KCl 3.5, NaH2PO4 1.2, MgCl2 1.3, and CaCl2 2 in mM. Then, the slices were let to recover for at least 1 h.
Slice perfusion and temperature control. During the experiments, the slices were continuously perfused with the ACSF (bubbled with 95% O2-5% CO2) at the rate of 3 mL/min with a peristaltic pump (MEA chamber volume: ˜1 mL). Complete solution exchange in the MEA chamber was achieved 20 s after the switch of solutions. The perfusion liquid was continuously pre-heated at 37° C. just before reaching the MEA chamber with a heated-perfusion cannula (PH01, MultiChannel Systems, Reutlingen, Germany). The temperature of the MEA chamber was maintained at 37±0.1° C. with a heating element located in the MEA amplifier headstage.
Input/Output (I/O) curve: from 100 to 800 μA, by 100 μA steps. The stimulus intensity was then set to a fixed value of 250 μA for the short- and long-term synaptic plasticity measurements.
Short-term plasticity properties: two pulses with a decreasing inter-stimuli interval (e.g. 300 ms, 200 ms, 100 ms, 50 ms, 25 ms) were applied. Compound application: fEPSP were recorded for 10 minutes in control conditions (to verify the baseline steadiness) followed by a 15-minute exposure to the compound (or 25 minutes in the presence of vehicle only for control slices). A second I/O protocol and paired-pulse protocol were applied, as described previously, in the continuous presence of the compound.
Long-Term Potentiation (LTP): Following a 10-minute control period (in the presence of the compound or vehicle for control slices), LTP was induced by a 10×TBS. Potentiation of synaptic transmission was then monitored for an additional 60-minute period (in the continuous presence of the compound or vehicle for control slices).

male Long Evans rats = test: Novel Object Recognition (NOR) test, MK-801-induced memory deficit; type: in vivo, rat
rats [2] = test: Formalin test - score; type: in vivo, rat; conditions: Compound I-2 p.o. 10 mg/kg; 120 minutes after treatment
Protocol: Formalin Test. 2.5% formalin solution was injected by subplantar route into the right hind paw. Scoring of pain behavior was performed in rats for 36 minutes every 3 minutes according to the following scores:
0=normal behavior of the injected hind limb to support the body
1=slight touching of the injected paw on the floor to lightly support or not support the body
2=total withdrawal of the injected paw
3=licking, biting or shaking of the injected paw.
(§1) Testing: 120 minutes after treatment. N=4/model/test. Results are expressed for each group as a percentage of activity calculated from the mean value of the vehicle-treated animals and compared to naïve animals, control paw, or cut-off value, depending on the test.

cGMP = test: Compound-induced cGMP in mouse brain; type: in vivo
Protocol: Protocol. Mice (n=9-10 per experimental condition) were dosed P.O. with vehicle (1% hydroxypropyl methyl cellulose, 0.2% Tween80, 0.5% methyl cellulose), P.O. with 10 mg/Kg of Compound I-2. Thirty minutes after dosing, under isoflurane anesthesia, each mouse was decapitated and its brain was removed and was placed into an ice-cold petri dish containing slushy dissection solution (saturated with 95% O2·5% CO2). Using an ice-cold spatula, the brain was transferred to mouse brain matrix with coronal spacing for slicing at 1 mm intervals, as schematized in the FIGURE below (not to scale, just a scheme). • ?
The sliced brain was transferred back into petri dish containing slushy dissection solution with IBMX 0.5 mM (saturated with 95% O2·5% CO2). The dorsal striatum is dissected first, followed by the hippocampus second, followed by the medial prefrontal cortex third, and lastly, the cerebellum fourth. After each region was dissected the “chunk” of tissue was immediately placed into an eppendorf which had been placed on dry ice for the previous 30 minutes. Small pieces of tissue froze very fast, within 10 seconds approximately. After all regions were placed in an eppendorf, eppendorfs were snap frozen by immersion into liquid nitrogen. The tissue samples were stored at −80 C. cGMP levels in brain were determined by LC/MS. Brain samples were homogenized in an aqueous buffer consisting of 80:20 (V/V %) water:acetic acid using an ultrasonicator probe. Brain homogenates containing sGC compounds and or cGMP were extracted from brain tissue by protein precipitation with an organic solvent containing internal standards (IS) followed by filtration and phospholipid removal using a Phenomenex® Phree™ phospholipid removal plate. Samples were analyzed using liquid chromatography (LC) with tandem mass spectrometric detection (MS/MS) using electrospray ionization. The standard curve concentrations used for quantitation of cGMP and or sGC compound(s) ranged from 0.2 to 400 ng/mL. Protein quantification of brain samples was determined using BCA protein assay kit.

rats [3] = test: TNBS - colorectal distension; type: in vivo, rat; conditions: Compound I-2 p.o. 10 mg/kg; 120 minutes after treatment
Protocol: TNBS. Surgery: Colonic sensitivity was induced by surgical administration of TNBS seven days before behavioral testing (D−7). Fasted (overnight) animals underwent surgery. Briefly, under anesthesia (Xylazine 10 mg/kg i.p., ketamine 60 mg/kg i.p.), injection of TNBS (50 mg/kg, 1 mL/kg) was performed into the proximal part of the colon (1 cm from the caecum). After surgery, animals returned in their home cages in a regulated environment, and were fed ad libitum until D−1 (animals were fasted 24 hours before distention). Colorectal distension: Seven days (D0) after TNBS injection, colonic sensitivity was assessed on fasted (overnight) animals by measuring the intra-colonic pressure required to induce a behavioral response during colonic distension. To perform distension, a 5-cm balloon was gently inserted into the colon of vigil animals at 10 cm from the anus and the catheter was taped to the base of the tail. […] Pain behavior was characterized by an elevation of the hind part of the animals body and a clearly visible abdominal contraction corresponding to a severe cramp. Two determinations were performed.
as §1

[4] = 855 nM, R6/2 hippocampal slices
[5] = I-2 0.1 mg/kg, compared to Vehicle/MK-801 group

Structure (SMILES): FC(F)(F)c1n[nH]c(-c2nc(Cc3cncnc3)c3ccccn23)n1 [Compound I-5]
- Potentiation in R6/2 slices compared to R6/2 control slices ([1]; 855 nM): significantly increased
- fEPSP amplitude (basal synaptic transmission) ([1]; 855 nM for 15 minutes, R6/2 hippocampal slices): did not modify
- I/O characteristics [1, 4]: significantly higher
- Paired-pulse properties [1, 4]: significantly increased
- LTP: fEPSP increase at endpoint after HFS ([1]; 855 nM, R6/2 hippocampal slices, WT control 36±3%, R6/2 control 15±2%): 40±6%

Structure (SMILES): Fc1ccccc1Cn1nc(-c2nc(C(F)(F)F)n[nH]2)c2cccnc21 [Compound I-2]
- Recognition Index, Mean (0 to 3 minute time bin) (male Long Evans rats; I-2 0.1 mg/kg oral + MK-801 0.1 mg/kg IP): 68.21%
- Reversal of MK-801-induced memory deficits, 0-3 minute time range (male Long Evans rats; [5]): significantly reversed
- Reversal of MK-801-induced memory deficits, 0-5 minute time range (male Long Evans rats; [5]): significantly reversed
- Recognition Index, Mean (0 to 3 minute time bin) (male Long Evans rats; I-2 1 mg/kg oral + MK-801 0.1 mg/kg IP): 63.98%
- Recognition Index, Mean (0 to 3 minute time bin) (male Long Evans rats; I-2 10 mg/kg oral + MK-801 0.1 mg/kg IP): 61.76%
- % of activity vs. vehicle, formalin test score (early phase) (rats [2]): 61%
- % of activity vs. vehicle, formalin test score (late phase) (rats [2]): 11%
- mPFC: nM cGMP/μg protein (cGMP; mouse cortex, 10 mg/Kg P.O., 30 minutes after dosing, vehicle 0.075): 0.124 nM cGMP/μg protein
- Hippocampus: nM cGMP/μg protein (cGMP; mouse, 10 mg/Kg P.O., 30 minutes after dosing, vehicle 0.033): 0.072 nM cGMP/μg protein
- Striatum: nM cGMP/μg protein (cGMP; mouse, 10 mg/Kg P.O., 30 minutes after dosing, vehicle 0.062): 0.104 nM cGMP/μg protein
- Cerebellum: nM cGMP/μg protein (cGMP; mouse, 10 mg/Kg P.O., 30 minutes after dosing, vehicle 0.364): 0.681 nM cGMP/μg protein
- cGMP in the cerebellum versus vehicle (cGMP; mouse, acute 10 mg/Kg P.O.): significant increase
- cGMP in the cortex versus vehicle (cGMP; mouse, acute 10 mg/Kg P.O.): significant increase
- cGMP in the hippocampus versus vehicle (cGMP; mouse, acute 10 mg/Kg P.O.): significant increase
- % of activity vs. vehicle, TNBS colorectal distension (rats [3]): 43%
